# Reference: patent publication US9567302B2, “Carbamate compounds and of making and using same” (Abide Therapeutics, Inc., priority 2012, dated 2017)
# Experiments:
# Type in all cases: biochemical
# Parameters in all cases: from tissue; host or cells: mouse brain membrane fraction
# Conditions in all cases: 30 min preincubation at 37° C.
# ABHD6 = target: T1, ABHD6 (Mus musculus, UniProt Q8R2Y0); experiment: In vitro competitive activity-based protein profiling (FP-Rh), mouse ABHD6
# T1 sequence (Q8R2Y0 1-336): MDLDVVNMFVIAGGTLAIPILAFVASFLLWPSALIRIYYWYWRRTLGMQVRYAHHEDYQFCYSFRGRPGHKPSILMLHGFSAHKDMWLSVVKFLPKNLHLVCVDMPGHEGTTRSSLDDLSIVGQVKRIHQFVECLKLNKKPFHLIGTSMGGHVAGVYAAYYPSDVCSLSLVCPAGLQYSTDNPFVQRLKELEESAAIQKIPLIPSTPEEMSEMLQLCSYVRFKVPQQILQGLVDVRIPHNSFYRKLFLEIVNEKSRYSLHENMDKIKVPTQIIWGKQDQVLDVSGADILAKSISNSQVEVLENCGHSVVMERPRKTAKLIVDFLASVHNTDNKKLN
# Experimental: (§1) In Vitro Competitive Activity-Based Protein Profiling.
# (§2) Proteomes (mouse brain membrane fraction or cell lysates) (50 μL, 1.0 mg/ml total protein concentration) were preincubated with varying concentrations of inhibitors at 37° C. After 30 min, FP-Rh (1.0 μL, 50 μM in DMSO) was added and the mixture was incubated for another 30 min at 37° C. Reactions were quenched with SDS loading buffer (50 μL—4×) and run on SDS-PAGE.
# FAAH = target: T2, FAAH (Mus musculus, UniProt O08914); experiment: In vitro competitive activity-based protein profiling (FP-Rh), mouse FAAH
# T2 sequence (O08914 1-579): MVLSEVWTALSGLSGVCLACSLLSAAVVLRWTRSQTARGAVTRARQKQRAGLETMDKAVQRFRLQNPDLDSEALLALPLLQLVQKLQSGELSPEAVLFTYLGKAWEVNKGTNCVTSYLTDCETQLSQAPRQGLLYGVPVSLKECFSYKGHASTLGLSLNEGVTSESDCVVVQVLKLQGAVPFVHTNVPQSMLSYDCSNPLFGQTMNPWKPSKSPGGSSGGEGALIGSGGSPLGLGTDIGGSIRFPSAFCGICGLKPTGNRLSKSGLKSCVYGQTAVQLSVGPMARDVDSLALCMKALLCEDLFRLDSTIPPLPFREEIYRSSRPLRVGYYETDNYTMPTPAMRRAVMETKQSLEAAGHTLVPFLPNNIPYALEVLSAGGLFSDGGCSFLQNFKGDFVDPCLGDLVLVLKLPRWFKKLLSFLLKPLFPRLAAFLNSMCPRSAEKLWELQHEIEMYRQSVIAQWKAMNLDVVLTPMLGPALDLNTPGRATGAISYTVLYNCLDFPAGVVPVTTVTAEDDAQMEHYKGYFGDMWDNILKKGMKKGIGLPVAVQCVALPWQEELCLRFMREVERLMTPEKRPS
# Experimental: as §1, §2
# MAGL = target: T3, MAGL (Mus musculus, UniProt O35678); experiment: In vitro competitive activity-based protein profiling (FP-Rh), mouse MAGL
# T3 sequence (O35678 1-303): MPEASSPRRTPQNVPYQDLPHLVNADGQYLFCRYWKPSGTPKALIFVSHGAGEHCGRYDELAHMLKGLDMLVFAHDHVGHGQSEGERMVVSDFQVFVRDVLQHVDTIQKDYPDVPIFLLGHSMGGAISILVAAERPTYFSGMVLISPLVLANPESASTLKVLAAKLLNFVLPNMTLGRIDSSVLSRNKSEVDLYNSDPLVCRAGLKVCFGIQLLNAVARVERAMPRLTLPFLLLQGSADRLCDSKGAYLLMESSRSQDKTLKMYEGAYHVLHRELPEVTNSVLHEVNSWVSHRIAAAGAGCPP
# Experimental: as §1, §2
SMILES,"IC50 (ABHD6; Table 1, mouse proteome)","IC50 (FAAH; Table 1, mouse proteome)","IC50 (MAGL; Table 1, mouse proteome)","IC50 (ABHD6; Table 2, mouse proteome)","IC50 (FAAH; Table 2, mouse proteome)","IC50 (MAGL; Table 2, mouse proteome)"
"O=C(ON1C(=O)CNC1=O)N1CCC(CCc2ccc(Cl)cc2)CC1 [Example 48, 2,5-Dioxoimidazolidin-1-yl 4-(4-chlorophenethyl)piperidine-1-carboxylate]",< 100 nM,< 100 nM,< 100 nM,–,–,–
"CN1CC(=O)N(OC(=O)N2CCC(CCc3ccc(Cl)cc3)CC2)C1=O [Example 49, 3-Methyl-2,5-dioxoimidazolidin-1-yl 4-(4-chlorophenethyl)piperidine-1-carboxylate]",< 100 nM,100 to 1000 nM,< 100 nM,–,–,–
"O=C(ON1C(=O)CN(Cc2ccccc2)C1=O)N1CCC(CCc2ccc(Cl)cc2)CC1 [Example 50, 3-Benzyl-2,5-dioxoimidazolidin-1-yl 4-(4-chlorophenethyl)piperidine-1-carboxylate]",< 100 nM,< 100 nM,100 to 1000 nM,–,–,–
"COc1ccc(N2CCN(C(=O)ON3C(=O)CC(C)(C)C3=O)CC2)cc1 [Example 52, 3,3-Dimethyl-2,5-dioxopyrrolidin-1-yl 4-(4-methoxyphenyl)piperazine-1-carboxylate]",100 to 1000 nM,> 10000 nM,> 10000 nM,–,–,–
"COc1ccc(N2CCN(C(=O)ON3C(=O)C4CCCCC4C3=O)CC2)cc1 (stereo not drawn) [Example 53, 1,3-Dioxohexahydro-1H-isoindol-2(3H)-yl 4-(4-methoxyphenyl)piperazine-1-carboxylate]",< 100 nM,> 10000 nM,> 10000 nM,–,–,–
"COc1ccc(N2CCN(C(=O)ON3C(=O)CC(c4ccccc4)C3=O)CC2)cc1 (stereo not drawn) [Example 54, 2,5-Dioxo-3-phenylpyrrolidin-1-yl 4-(4-methoxyphenyl)piperazine-1-carboxylate]",< 100 nM,1000 to 10000 nM,1000 to 10000 nM,–,–,–
"COc1ccc(N2CCN(C(=O)ON3C(=O)NC(C(C)C)C3=O)CC2)cc1 (stereo not drawn) [Example 55, 4-Isopropyl-2,5-dioxoimidazolidin-1-yl 4-(4-methoxyphenyl)piperazine-1-carboxylate]",< 100 nM,1000 to 10000 nM,> 10000 nM,–,–,–
"CN1CC(=O)N(OC(=O)N2CCN(C(c3ccc(Cl)cc3)c3ccc(Cl)cc3)CC2)C1=O [Example 56, 3-Methyl-2,5-dioxoimidazolidin-1-yl 4-(bis(4-chlorophenyl)methyl)piperazine-1-carboxylate]",100 to 1000 nM,> 10000 nM,< 100 nM,–,–,–
"CN(C)C(=O)ON1C(=O)CCC1=O [Example 57, 2,5-Dioxopyrrolidin-1-yl dimethylcarbamate]",> 10000 nM,> 10000 nM,> 10000 nM,–,–,–
"CN(C)C(=O)ON1C(=O)CC(c2ccccc2)C1=O (stereo not drawn) [Example 59, 2,5-Dioxo-3-phenylpyrrolidin-1-yl dimethylcarbamate]",> 10000 nM,> 10000 nM,> 10000 nM,–,–,–
"O=C(ON1C(=O)CC(c2ccccc2)C1=O)N1CCCCC1 (stereo not drawn) [Example 60, 2,5-Dioxo-3-phenylpyrrolidin-1-yl piperidine-1-carboxylate]",> 10000 nM,> 10000 nM,> 10000 nM,–,–,–
"O=C(ON1C(=O)CNC1=O)N1CCCCC1 [Example 61, 2,5-Dioxoimidazolidin-1-yl piperidine-1-carboxylate]",> 10000 nM,> 10000 nM,> 10000 nM,–,–,–
"O=C(ON1C(=O)CCC1=O)N1CCN(Cc2ccc(N3CCOCC3)cc2F)CC1 [Example 62, 2,5-Dioxopyrrolidin-1-yl 4-(2-fluoro-4-morpholinobenzyl)-piperazine-1-carboxylate]",–,–,–,1000 to 10000 nM,> 10000 nM,1000 to 10000 nM
"O=C(ON1C(=O)CCC1=O)N1CCN(Cc2ccc(Br)cc2N2CCCCC2)CC1 [Example 65, 2,5-Dioxopyrrolidin-1-yl 4-(4-bromo-2-(piperidin-1-yl)benzyl)piperazine-1-carboxylate]",–,–,–,100 to 1000 nM,1000 to 10000 nM,< 100 nM
"O=C(ON1C(=O)CCC1=O)N1CCN(Cc2ccc(Br)cc2N2CCOCC2)CC1 [Example 66, 2,5-Dioxopyrrolidin-1-yl 4-(4-bromo-2-morpholinobenzyl)piperazine-1-carboxylate]",–,–,–,1000 to 10000 nM,1000 to 10000 nM,< 100 nM
"COc1cc(N2CCOCC2)ccc1CN1CCN(C(=O)ON2C(=O)CCC2=O)CC1 [Example 67, 2,5-Dioxopyrrolidin-1-yl 4-(2-methoxy-4-morpholinobenzyl)piperazine-1-carboxylate]",–,–,–,1000 to 10000 nM,1000 to 10000 nM,1000 to 10000 nM
"Cc1cc(N2CCCC2)ccc1CN1CCN(C(=O)ON2C(=O)CCC2=O)CC1 [Example 68, 2,5-Dioxopyrrolidin-1-yl 4-(2-methyl-4-(pyrrolidin-1-yl)benzyl)piperazine-1-carboxylate]",–,–,–,100 to 1000 nM,1000 to 10000 nM,100 to 1000 nM
"O=C(ON1C(=O)CCC1=O)N1CCN(Cc2ccc(Cl)cc2N2CCOCC2)CC1 [Example 69, 2,5-Dioxopyrrolidin-1-yl 4-(4-chloro-2-morpholinobenzyl)piperazine-1-carboxylate]",–,–,–,100 to 1000 nM,1000 to 10000 nM,< 100 nM
"COc1ccc(CN2CCN(C(=O)ON3C(=O)CCC3=O)CC2)cc1 [Example 70, 2,5-Dioxopyrrolidin-1-yl 4-(4-methoxybenzyl)piperazine-1-carboxylate]",–,–,–,1000 to 10000 nM,1000 to 10000 nM,1000 to 10000 nM
"Cc1ccc(CN2CCN(C(=O)ON3C(=O)CCC3=O)CC2)cc1 [Example 71, 2,5-Dioxopyrrolidin-1-yl 4-(4-methylbenzyl)piperazine-1-carboxylate]",–,–,–,1000 to 10000 nM,1000 to 10000 nM,100 to 1000 nM
"O=C(ON1C(=O)CCC1=O)N1CCN(Cc2ccc(Cl)cc2N2CCCC2)CC1 [Example 74, 2,5-Dioxopyrrolidin-1-yl 4-(4-chloro-2-(pyrrolidin-1-yl)benzyl)piperazine-1-carboxylate]",–,–,–,100 to 1000 nM,> 10000 nM,< 100 nM
"O=C(ON1C(=O)CCC1=O)N1CCN(Cc2ccc(N3CCCC3)c(F)c2)CC1 [Example 75, 2,5-Dioxopyrrolidin-1-yl 4-(3-fluoro-4-(pyrrolidin-1-yl)benzyl)piperazine-1-carboxylate]",–,–,–,1000 to 10000 nM,> 10000 nM,100 to 1000 nM
"O=C(ON1C(=O)CCC1=O)N1CCN(Cc2ccc(N3CCCC3)cc2Cl)CC1 [Example 78, 2,5-Dioxopyrrolidin-1-yl 4-(2-chloro-4-(pyrrolidin-1-yl)benzyl)piperazine-1-carboxylate]",–,–,–,< 100 nM,1000 to 10000 nM,< 100 nM
"O=C(ON1C(=O)CCC1=O)N1CCN(Cc2cccc(Cl)c2N2CCOCC2)CC1 [Example 82, 2,5-Dioxopyrrolidin-1-yl 4-{[3-chloro-2-(morpholin-4-yl)phenyl]methyl}piperazine-1-carboxylate]",–,–,–,1000 to 10000 nM,> 10000 nM,100 to 1000 nM
"O=C(ON1C(=O)CCC1=O)N1CCN(Cc2cccc(N3CCOCC3)c2)CC1 [Example 83, 2,5-Dioxopyrrolidin-1-yl 4-(3-morpholinobenzyl)piperazine-1-carboxylate]",–,–,–,100 to 1000 nM,> 10000 nM,100 to 1000 nM
"O=C(ON1C(=O)CCC1=O)N1CCN(Cc2ccc(Cl)cc2-n2cccn2)CC1 [Example 84, 2,5-Dioxopyrrolidin-1-yl 4-(4-chloro-2-(1H-pyrazol-1-yl)benzyl)piperazine-1-carboxylate]",–,–,–,1000 to 10000 nM,> 10000 nM,100 to 1000 nM
"CC(=O)NC1CCN(c2cc(Cl)ccc2CN2CCN(C(=O)ON3C(=O)CCC3=O)CC2)C1 (stereo not drawn) [Example 85, 2,5-Dioxopyrrolidin-1-yl 4-(2-(3-acetamidopyrrolidin-1-yl)-4-chlorobenzyl)piperazine-1-carboxylate]",–,–,–,1000 to 10000 nM,> 10000 nM,< 100 nM
